{"source": "patent US4084951A", "about": "“Silicon compounds containing nucleofugal phosphate group and method of regulating plant growth therewith” (priority 1971, dated 1978)", "key": {"[1]": {"assay": "Half lives of various silanes in 0.1M aqueous phosphate buffers at pH 7 and 25°", "format": "physicochemical", "settings": "0.1M aqueous phosphate buffer, pH 7, 25°", "procedure": "Half lives of various silanes in 0.1M aqueous\nphosphate buffers at pH 7 and 25°."}, "[2]": {"test_system": "Hevea brasiliensis seedlings", "assay": "Average rubber yield of seedlings treated with silane, neat liquid or 12% solution in petroleum jelly", "format": "in vivo", "procedure": "Three Hevea brasiliensis seedlings were treated with 2-chloroethyltrimethoxysilane (2 μ1) applied as a neat liquid. Three similar seedlings were treated with the same weight of compound applied as a 12% solution in petroleum jelly. The following average yields of rubber were obtained (yield in mg of dry rubber, expressed as a percentage of pretreatment yields in parentheses)."}, "[3]": {"test_system": "Hevea brasiliensis trees (Clone Tjirandji 1)", "assay": "Yield of dried rubber from trees treated on scraped bark below the tapping cut", "format": "in vivo", "settings": "20% w/w in palm oil, alternate-day half-spiral tapping, mean over two weeks", "procedure": "A solution of 20% w/w of diphenyl 2-(trimethylsilyl)ethylphosphate in palm oil was applied to 11/2 inch wide strip of scraped bark just below the tapping cut of Hevea brasiliensis trees (Clone Tjirandji 1). The trees were tapped on alternate days using a half-spiral tapping cut. The yield of dried rubber obtained over a four-week period was measured. The mean yields over two weeks, expressed as grams of dry rubber per tree per tapping was 45.5 (194% of control)."}, "[4]": {"settings": "12% solution in petroleum jelly, 3 days after treatment"}, "[5]": {"settings": "12% solution in petroleum jelly, 7 days after treatment"}, "[6]": {"settings": "12% solution in petroleum jelly, 12 days after treatment"}, "[7]": {"settings": "12% solution in petroleum jelly, 16 days after treatment"}, "[8]": {"settings": "12% solution in petroleum jelly, 24 days after treatment"}, "[9]": {"settings": "12% solution in petroleum jelly, 30 days after treatment"}, "[10]": {"settings": "12% solution in petroleum jelly, 34 days after treatment"}, "[11]": {"settings": "12% solution in petroleum jelly, 42 days after treatment"}, "[12]": {"settings": "neat liquid (2 μl), 3 days after treatment"}, "[13]": {"settings": "neat liquid (2 μl), 7 days after treatment"}, "[14]": {"settings": "neat liquid (2 μl), 12 days after treatment"}, "[15]": {"settings": "neat liquid (2 μl), 16 days after treatment"}, "[16]": {"settings": "neat liquid (2 μl), 24 days after treatment"}, "[17]": {"settings": "neat liquid (2 μl), 30 days after treatment"}, "[18]": {"settings": "neat liquid (2 μl), 34 days after treatment"}, "[19]": {"settings": "neat liquid (2 μl), 42 days after treatment"}}}
{"smiles": "CC(C)O[Si](CCCl)(OC(C)C)OC(C)C", "note": "[2-chloroethyltriisopropoxysilane]", "values": [{"measurement": "half-life", "setting": "[1]", "value": 504, "unit": "h"}]}
{"smiles": "CO[Si](CCCl)(OC)OC", "note": "[2-chloroethyltrimethoxysilane]", "values": [{"measurement": "average yield of dry rubber", "setting": "[2]; [4]", "value": 2.2, "unit": "mg"}, {"measurement": "yield as a percentage of pretreatment yields", "setting": "[2]; [4]", "value": 160, "unit": "%"}, {"measurement": "average yield of dry rubber", "setting": "[2]; [5]", "value": 2.3, "unit": "mg"}, {"measurement": "yield as a percentage of pretreatment yields", "setting": "[2]; [5]", "value": 164, "unit": "%"}, {"measurement": "average yield of dry rubber", "setting": "[2]; [6]", "value": 2.3, "unit": "mg"}, {"measurement": "yield as a percentage of pretreatment yields", "setting": "[2]; [6]", "value": 164, "unit": "%"}, {"measurement": "average yield of dry rubber", "setting": "[2]; [7]", "value": 3.0, "unit": "mg"}, {"measurement": "yield as a percentage of pretreatment yields", "setting": "[2]; [7]", "value": 215, "unit": "%"}, {"measurement": "average yield of dry rubber", "setting": "[2]; [8]", "value": 2.2, "unit": "mg"}, {"measurement": "yield as a percentage of pretreatment yields", "setting": "[2]; [8]", "value": 160, "unit": "%"}, {"measurement": "average yield of dry rubber", "setting": "[2]; [9]", "value": 2.3, "unit": "mg"}, {"measurement": "yield as a percentage of pretreatment yields", "setting": "[2]; [9]", "value": 164, "unit": "%"}, {"measurement": "average yield of dry rubber", "setting": "[2]; [10]", "value": 1.8, "unit": "mg"}, {"measurement": "yield as a percentage of pretreatment yields", "setting": "[2]; [10]", "value": 128, "unit": "%"}, {"measurement": "average yield of dry rubber", "setting": "[2]; [11]", "value": 0.9, "unit": "mg"}, {"measurement": "yield as a percentage of pretreatment yields", "setting": "[2]; [11]", "value": 65, "unit": "%"}, {"measurement": "average yield of dry rubber", "setting": "[2]; [12]", "value": 2.1, "unit": "mg"}, {"measurement": "yield as a percentage of pretreatment yields", "setting": "[2]; [12]", "value": 230, "unit": "%"}, {"measurement": "average yield of dry rubber", "setting": "[2]; [13]", "value": 2.2, "unit": "mg"}, {"measurement": "yield as a percentage of pretreatment yields", "setting": "[2]; [13]", "value": 245, "unit": "%"}, {"measurement": "average yield of dry rubber", "setting": "[2]; [14]", "value": 1.3, "unit": "mg"}, {"measurement": "yield as a percentage of pretreatment yields", "setting": "[2]; [14]", "value": 145, "unit": "%"}, {"measurement": "average yield of dry rubber", "setting": "[2]; [15]", "value": 1.1, "unit": "mg"}, {"measurement": "yield as a percentage of pretreatment yields", "setting": "[2]; [15]", "value": 122, "unit": "%"}, {"measurement": "average yield of dry rubber", "setting": "[2]; [16]", "value": 0.9, "unit": "mg"}, {"measurement": "yield as a percentage of pretreatment yields", "setting": "[2]; [16]", "value": 100, "unit": "%"}, {"measurement": "average yield of dry rubber", "setting": "[2]; [17]", "value": 0.8, "unit": "mg"}, {"measurement": "yield as a percentage of pretreatment yields", "setting": "[2]; [17]", "value": 90, "unit": "%"}, {"measurement": "average yield of dry rubber", "setting": "[2]; [18]", "value": 1.2, "unit": "mg"}, {"measurement": "yield as a percentage of pretreatment yields", "setting": "[2]; [18]", "value": 134, "unit": "%"}, {"measurement": "average yield of dry rubber", "setting": "[2]; [19]", "value": 1.0, "unit": "mg"}, {"measurement": "yield as a percentage of pretreatment yields", "setting": "[2]; [19]", "value": 112, "unit": "%"}, {"measurement": "half-life", "setting": "[1]", "value": 0.333, "unit": "h"}]}
{"smiles": "C[Si](C)(C)CCCl", "note": "[2-chloroethyltrimethylsilane]", "values": [{"measurement": "half-life", "setting": "[1]", "value": "< 0.0167", "unit": "h"}]}
{"smiles": "C[Si](C)(C)CCOP(=O)(Oc1ccccc1)Oc1ccccc1", "note": "[diphenyl 2-(trimethylsilyl)-ethyl phosphate]", "values": [{"measurement": "mean yield of dry rubber per tree per tapping", "setting": "[3]", "value": "45.5 grams of dry rubber per tree per tapping"}, {"measurement": "mean yield relative to control", "setting": "[3]", "value": "194 % of control"}]}
{"smiles": "CC[S+](C)CC[Si](OC)(OC)OC.[I-]", "note": "(centres unmarked) [ethyl methyl 2-(trimethoxysilyl)-ethyl sulphonium iodide]", "values": [{"measurement": "half-life", "setting": "[1]", "value": 14, "unit": "h"}]}
